Experimental data reported in ChEMBL document CHEMBL1201862, “PubChem BioAssay data set” (2004).
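Results reflect a 48-hour exposure of cells in 96-well plates to compound at five concentrations. The concentration for 50% growth inhibition is given as GI50.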 Active and inactive are the calls of the source. No stated cut-off is given here; in the data, active = GI50 up to about 1.1 µM and inactive = higher.

Key:
Assay in all cases: inhibition of tumour cell growth, NCI panel, 48 h
OVCAR-5 = tested on: OVCAR-5
SK-MEL-28 = tested on: SK-MEL-28
MDA-N = tested on: MDA-N
MCF7 = tested on: MCF7
A498 = tested on: A498
HCC 2998 = tested on: HCC 2998
HCT-15 = tested on: HCT-15
SW-620 = tested on: SW-620
IGROV-1 = tested on: IGROV-1
ACHN = tested on: ACHN
EKVX = tested on: EKVX
MDA-MB-231 = tested on: MDA-MB-231
MOLT-4 = tested on: MOLT-4
OVCAR-4 = tested on: OVCAR-4
SF-295 = tested on: SF-295
KM12 = tested on: KM12
TK-10 = tested on: TK-10
UO-31 = tested on: UO-31
SK-OV-3 = tested on: SK-OV-3
OVCAR-3 = tested on: OVCAR-3
HOP-62 = tested on: HOP-62
SNB-75 = tested on: SNB-75
SK-MEL-5 = tested on: SK-MEL-5
HCT-116 = tested on: HCT-116
COLO 205 = tested on: COLO 205
SR = tested on: SR
BT-549 = tested on: BT-549
UACC-257 = tested on: UACC-257
K562 = tested on: K562
CAKI-1 = tested on: CAKI-1
SN12C = tested on: SN12C
Malme-3M = tested on: Malme-3M
A549 = tested on: A549
HL-60 = tested on: HL-60
NCI-H226 = tested on: NCI-H226
CCRF-CEM = tested on: CCRF-CEM
PC-3 = tested on: PC-3
NCI-H522 = tested on: NCI-H522
NCI-H460 = tested on: NCI-H460
UACC-62 = tested on: UACC-62
RPMI-8226 = tested on: RPMI-8226
SF-268 = tested on: SF-268
NCI-H23 = tested on: NCI-H23
T47D = tested on: T47D
DU-145 = tested on: DU-145
SF-539 = tested on: SF-539
HT-29 = tested on: HT-29
NCI/ADR-RES = tested on: NCI/ADR-RES
SK-MEL-2 = tested on: SK-MEL-2
Hs-578T = tested on: Hs-578T
U-251 = tested on: U-251
LOX IMVI = tested on: LOX IMVI
M14 = tested on: M14
SNB-19 = tested on: SNB-19
OVCAR-8 = tested on: OVCAR-8
MDA-MB-435 = tested on: MDA-MB-435
786-0 = tested on: 786-0
RXF 393 = tested on: RXF 393

Compound: COc1cc(-c2oc3c(OC)c(O)c(OC)c(O)c3c(=O)c2OC)cc(OC)c1OC
- GI50 (OVCAR-5): > 100 µM (inactive)
- GI50 (SK-MEL-28): 81.5 µM (inactive)
- GI50 (MDA-N): 61.8 µM (inactive)
- GI50 (MCF7): 38 µM (inactive)
- GI50 (A498): 51.2 µM (inactive)
- GI50 (HCC 2998): 52.4 µM (inactive)
- GI50 (HCT-15): 41.7 µM
- GI50 (SW-620): > 100 µM (inactive)
- GI50 (IGROV-1): 31.3 µM (inactive)
- GI50 (ACHN): 48.3 µM (inactive)
- GI50 (EKVX): > 100 µM (inactive)
- GI50 (MDA-MB-231): 73.6 µM (inactive)
- GI50 (MOLT-4): 59.6 µM (inactive)
- GI50 (OVCAR-4): > 100 µM (inactive)
- GI50 (SF-295): > 100 µM (inactive)
- GI50 (KM12): > 100 µM (inactive)
- GI50 (TK-10): 55.5 µM (inactive)
- GI50 (UO-31): 17.3 µM (inactive)
- GI50 (SK-OV-3): 40.9 µM (inactive)
- GI50 (OVCAR-3): 31.6 µM (inactive)
- GI50 (HOP-62): 28.8 µM (inactive)
- GI50 (SNB-75): 20.8 µM (inactive)
- GI50 (SK-MEL-5): 14 µM (inactive)
- GI50 (HCT-116): 68.1 µM (inactive)
- GI50 (COLO 205): 83.8 µM (inactive)
- GI50 (SR): 51.2 µM (inactive)
- GI50 (BT-549): 71.8 µM (inactive)
- GI50 (UACC-257): 82.4 µM (inactive)
- GI50 (K562): 36.7 µM (inactive)
- GI50 (CAKI-1): 42.8 µM (inactive)
- GI50 (SN12C): > 100 µM (inactive)
- GI50 (Malme-3M): > 100 µM (inactive)
- GI50 (A549): > 100 µM (inactive)
- GI50 (HL-60): 41 µM (inactive)
- GI50 (NCI-H226): > 100 µM (inactive)
- GI50 (CCRF-CEM): 47.9 µM (inactive)
- GI50 (PC-3): 65.8 µM (inactive)
- GI50 (NCI-H522): 17.4 µM (inactive)
- GI50 (NCI-H460): 39 µM (inactive)
- GI50 (UACC-62): 24.3 µM (inactive)
- GI50 (RPMI-8226): 31.8 µM (inactive)
- GI50 (SF-268): 21 µM (inactive)
- GI50 (NCI-H23): > 100 µM (inactive)
- GI50 (T47D): 24.6 µM (inactive)
- GI50 (DU-145): > 100 µM (inactive)
- GI50 (SF-539): 74.3 µM (inactive)
- GI50 (HT-29): 50.4 µM (inactive)
- GI50 (NCI/ADR-RES): 62.5 µM (inactive)
- GI50 (SK-MEL-2): 77.1 µM (inactive)
- GI50 (Hs-578T): 14.3 µM (inactive)
- GI50 (U-251): 47.6 µM (inactive)
- GI50 (LOX IMVI): 35.4 µM (inactive)
- GI50 (M14): 14.1 µM (inactive)
- GI50 (SNB-19): > 100 µM (inactive)
- GI50 (OVCAR-8): 53.7 µM (inactive)
- GI50 (MDA-MB-435): 35.4 µM (inactive)
- GI50 (786-0): 32.4 µM (inactive)

Compound: CN1CCN(c2ccc3nc(C4=C(O)C(=O)c5c(nc(CCl)n5C)C4=O)[nH]c3n2)CC1
- GI50 (OVCAR-5): 14.2 µM (inactive)
- GI50 (SK-MEL-28): 19.3 µM (inactive)
- GI50 (MDA-N): 9.75 µM (inactive)
- GI50 (MCF7): 8.89 µM (inactive)
- GI50 (RXF 393): 2.73 µM (inactive)
- GI50 (A498): 11.5 µM (inactive)
- GI50 (HCC 2998): 5.89 µM (inactive)
- GI50 (HCT-15): 38 µM
- GI50 (SW-620): 20 µM (inactive)
- GI50 (IGROV-1): 8.38 µM (inactive)
- GI50 (ACHN): 10.3 µM (inactive)
- GI50 (EKVX): 21.7 µM (inactive)
- GI50 (MDA-MB-231): 10.9 µM (inactive)
- GI50 (MOLT-4): 21.8 µM (inactive)
- GI50 (OVCAR-4): 15.7 µM (inactive)
- GI50 (SF-295): 16.7 µM (inactive)
- GI50 (KM12): 9.71 µM (inactive)
- GI50 (UO-31): 2.47 µM (inactive)
- GI50 (SK-OV-3): 10.5 µM (inactive)
- GI50 (OVCAR-3): 10.4 µM (inactive)
- GI50 (HOP-62): 9.51 µM (inactive)
- GI50 (SNB-75): 3.72 µM (inactive)
- GI50 (SK-MEL-5): 24.2 µM (inactive)
- GI50 (HCT-116): 8.85 µM (inactive)
- GI50 (COLO 205): 10.3 µM (inactive)
- GI50 (SR): 31.8 µM (inactive)
- GI50 (BT-549): 9.79 µM (inactive)
- GI50 (UACC-257): 12.4 µM (inactive)
- GI50 (K562): 24.2 µM (inactive)
- GI50 (CAKI-1): 13.5 µM (inactive)
- GI50 (SN12C): 9.98 µM (inactive)
- GI50 (Malme-3M): 3.66 µM (inactive)
- GI50 (A549): 30 µM (inactive)
- GI50 (HL-60): > 50 µM (inactive)
- GI50 (NCI-H226): 14.7 µM (inactive)
- GI50 (CCRF-CEM): > 50 µM (inactive)
- GI50 (PC-3): 16.9 µM (inactive)
- GI50 (NCI-H522): 1.56 µM (inactive)
- GI50 (NCI-H460): 20.2 µM (inactive)
- GI50 (UACC-62): 9.89 µM (inactive)
- GI50 (RPMI-8226): 26 µM (inactive)
- GI50 (SF-268): 14.9 µM (inactive)
- GI50 (NCI-H23): 11.5 µM (inactive)
- GI50 (T47D): 0.796 µM (active)
- GI50 (DU-145): 10.1 µM (inactive)
- GI50 (SF-539): > 50 µM (inactive)
- GI50 (HT-29): 11.6 µM (inactive)
- GI50 (NCI/ADR-RES): > 50 µM (inactive)
- GI50 (SK-MEL-2): 10 µM (inactive)
- GI50 (Hs-578T): 18.7 µM (inactive)
- GI50 (U-251): 8.77 µM (inactive)
- GI50 (LOX IMVI): 8.15 µM (inactive)
- GI50 (M14): 9.4 µM (inactive)
- GI50 (SNB-19): 8.95 µM (inactive)
- GI50 (OVCAR-8): 8.05 µM (inactive)
- GI50 (MDA-MB-435): 9.86 µM (inactive)
- GI50 (786-0): 8.61 µM (inactive)
